One experiment concerns MDA-MB-231. Description: cells. The following applies: Homo sapiens.
In the next experiment the test system is MCF7. Description: cells. The following applies: Homo sapiens.
The subject of experiment [1] is MDA-MB-436.
In experiment [2] the target is T1, Poly [ADP-ribose] polymerase 1 (Homo sapiens, UniProt P09874). Nature of the experiment: Inhibition of recombinant human full length C-terminal His-tagged PARP1 expressed in Sf9 insect cells preincubated for 15 mins followed by NAD+ addition and measured after 40 mins by fluorescence based assay.
T1 sequence (P09874 whole entry): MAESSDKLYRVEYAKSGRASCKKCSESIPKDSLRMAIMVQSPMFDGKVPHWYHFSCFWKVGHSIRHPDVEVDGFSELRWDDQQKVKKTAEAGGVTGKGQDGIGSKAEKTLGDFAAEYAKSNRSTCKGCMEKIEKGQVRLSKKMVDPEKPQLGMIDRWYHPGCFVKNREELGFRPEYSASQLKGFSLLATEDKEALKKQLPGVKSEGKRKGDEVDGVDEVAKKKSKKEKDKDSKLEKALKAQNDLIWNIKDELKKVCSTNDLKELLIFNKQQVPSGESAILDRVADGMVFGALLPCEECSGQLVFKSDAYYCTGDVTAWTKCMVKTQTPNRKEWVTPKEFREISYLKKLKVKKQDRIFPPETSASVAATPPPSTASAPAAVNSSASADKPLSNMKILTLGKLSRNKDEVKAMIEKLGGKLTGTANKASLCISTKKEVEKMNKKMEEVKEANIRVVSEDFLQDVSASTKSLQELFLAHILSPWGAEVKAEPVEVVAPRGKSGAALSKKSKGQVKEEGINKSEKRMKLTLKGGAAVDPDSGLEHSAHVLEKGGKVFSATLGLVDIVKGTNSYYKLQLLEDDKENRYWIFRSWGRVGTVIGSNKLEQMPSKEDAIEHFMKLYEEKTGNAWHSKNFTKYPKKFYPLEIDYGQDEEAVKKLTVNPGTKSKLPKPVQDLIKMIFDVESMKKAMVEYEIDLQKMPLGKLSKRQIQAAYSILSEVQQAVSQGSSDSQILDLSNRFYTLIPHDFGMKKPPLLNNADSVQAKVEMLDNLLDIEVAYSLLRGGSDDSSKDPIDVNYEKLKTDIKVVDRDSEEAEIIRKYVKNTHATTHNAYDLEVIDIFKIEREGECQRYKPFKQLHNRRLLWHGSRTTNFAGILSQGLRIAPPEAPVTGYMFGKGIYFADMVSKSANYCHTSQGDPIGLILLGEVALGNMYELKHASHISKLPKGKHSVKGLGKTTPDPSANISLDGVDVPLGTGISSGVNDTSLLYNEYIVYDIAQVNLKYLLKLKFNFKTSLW
Experiment [3] has as its target T1, Poly [ADP-ribose] polymerase 1. Description: Inhibition of PARP1 in MMS treated human MDA-MB-436 cells harboring BRCA1 mutation assessed as increase in PARP1 trapping in chromatin-bound fraction incubated for 4 hrs by Western blot analysis. Format: cell-based.
Experiment [4] shares this target. Nature of the experiment: Inhibition of PARP1 in human MDA-MB-231 cells assessed as decrease in PAR expression level incubated for 3 hrs by Western blot analysis. Format: cell-based.
Experiment [5] shares this target. Nature of the experiment: Inhibition of PARP1 in human MDA-MB-231 cells assessed as increase in gammaH2AX expression level incubated for 24 hrs by Western blot analysis. Format: cell-based.
Experiment [6] shares this target. Description: Inhibition of PARP1 in human MDA-MB-436 cells harboring BRCA1 mutation assessed as decrease in PAR expression level incubated for 3 hrs by Western blot analysis. Format: cell-based.
The target is the same in experiment [7]. Description: Inhibition of PARP1 in human MDA-MB-436 cells harboring BRCA1 mutation assessed as increase in gammaH2AX expression level incubated for 24 hrs by Western blot analysis. Format: cell-based.
In experiment [8] the test system is MDA-MB-436. Description: Effect on whole cell PARP1 protein levels in MMS treated human MDA-MB-436 cells harboring BRCA1 mutation at 5 to 45 uM incubated for 4 hrs by Western blot analysis. Format: functional, cell-based.

The source made the active and inactive calls. No cut-off for these calls is given here.

For the compound `COc1cc(O)c(Cl)c(C)c1-c1cc(O)c(Br)c2cc3c(c(O)c12)C(=O)c1c(O)cc(O)cc1C3(C)C`, the IC50 in the experiment on MDA-MB-231 was > 40 µM; with MCF7, > 40 µM; with MDA-MB-436 [1] it was 12.9 µM; in experiment [2], 4.59 µM.
Regarding `COc1cc(O)c(Cl)c(C)c1-c1cc(O)cc2cc3c(c(O)c12)C(=O)c1c(O)cc(O)cc1C3(C)C`, the IC50 was > 40 µM with MDA-MB-231, > 40 µM in the experiment with MCF7, 10.5 µM in the experiment on MDA-MB-436 [1] and 4.86 µM in [2].
With `COc1cc(O)cc(C)c1-c1cc(O)cc2cc3c(c(O)c12)C(=O)c1c(cc(O)c(Cl)c1O)C3(C)C`, the IC50 is > 40 µM in the experiment with MDA-MB-231, > 40 µM in the experiment on MCF7, 20.2 µM in the experiment on MDA-MB-436 [1] and 15.4 µM in [2].
Take `COc1cc(O)c(Cl)c(C)c1-c1cc(O)cc2cc3c(c(O)c12)C(=O)c1c(O)c(Cl)c(O)c(Cl)c1C3(C)C`: the IC50 was > 40 µM with MDA-MB-231, > 40 µM with MCF7, 3.82 µM in the experiment on MDA-MB-436 [1] and 0.95 µM in [2]. The inhibition entry in experiment [3], in experiment [4], in experiment [5], in [6] and in experiment [7] was “Dose-dependent effect” throughout. In addition, the result in the experiment with MDA-MB-436 [8] was inactive.
`COc1c(Cl)c(O)c(Cl)c(C)c1-c1cc(O)c(Cl)c2cc3c(c(O)c12)C(=O)c1c(O)c(Cl)c(O)c(Cl)c1C3(C)C`: the IC50 was > 40 µM in the experiment with MDA-MB-231, 28.8 µM in the experiment on MCF7, 4.95 µM with MDA-MB-436 [1] and 1.82 µM in experiment [2].
In the case of `COc1cc(O)c(Cl)c(C)c1-c1cc(O)c(Cl)c2cc3c(c(O)c12)C(=O)c1c(O)c(Cl)c(O)c(Cl)c1C3(C)C`, the IC50 with MDA-MB-231 is > 40 µM; in the experiment with MCF7, > 40 µM; in the experiment with MDA-MB-436 [1] it was 9.27 µM; in experiment [2], 5.88 µM.
For `COc1cc(O)c(Cl)c(C)c1-c1cc(O)cc2cc3c(c(O)c12)C(=O)c1c(cc(O)c(Cl)c1O)C3(C)C`, the IC50 in the experiment on MDA-MB-231 came to 18.8 µM; with MCF7, 16.5 µM; in the experiment on MDA-MB-436 [1], 9.2 µM; in [2] it was 8.84 µM.
For `COc1cc(O)c(Cl)c(C)c1-c1cc(O)c(Cl)c2cc3c(c(O)c12)C(=O)c1c(cc(O)c(Cl)c1O)C3(C)C`, the IC50 in the experiment with MDA-MB-231 is > 40 µM; in the experiment with MCF7, > 40 µM; in the experiment with MDA-MB-436 [1] it was 8.61 µM; in experiment [2], 6.56 µM.
For `O=C(c1cc(Cc2n[nH]c(=O)c3ccccc23)ccc1F)N1CCN(C(=O)C2CC2)CC1` [OLAPARIB], the IC50 with MDA-MB-231 is > 40 µM; with MCF7 it was > 40 µM; in the experiment on MDA-MB-436 [1], 0.22 µM.
